Earlier results on five molecules are cited in PubChem BioAssay AID1259410 (Chemical Carcinogenesis Research Information System (CCRIS), 2018).

Structures are written as SMILES.

For this data set, the system named is rodent tumor promotion studies, tumor incidence. Briefly: CCRIS tumor promotion studies.
[1] abbreviates: Carcinogen: 7,12-DIMETHYLBENZ(A)ANTHRACENE, Doses [Carcinogen]: TOP, Route [Carcinogen]: DERMAL, Route [Promoter]: DERMAL, Species: MOUSE, Strain/Sex: FEMALE.

On to `CCCCCCCC/C=C\CCCCCCCC(=O)OC1CC2CCC1(C)C2(C)C` (stereo unspecified), for which the outcome under setting [1] is recorded as “integumentary system (skin)”.
As to `Oc1cccc(Cl)c1`, the outcome under setting [1] is “integumentary system (skin)”.
As to `C[C@]12CCC(=O)C=C1CC[C@@H]1[C@@H]2CC[C@@]2(C)[C@H]1CC[C@]2(C)O`, the outcome (Carcinogen: N-BIS(2-HYDROXYPROPYL)NITROSAMINE, 53609-64-6, Doses [Carcinogen]: 210 MG/100 G BW 1/WK FOR 2 WK, Doses [Promoter]: 0, 300 PPM IN DIET OF CASTRATED RATS BEGINNING POST CARCINOGEN TREATMENT AND CONTINUING FOR 28 WK (STUDY DURATION: 30 WK, Route [Carcinogen]: INTRAPERITONEAL, Route [Promoter]: ORAL, Species: RAT, Strain/Sex: WISTAR/MALE) was “thyroid gland: adenoma or carcinoma”.
For the molecule `Clc1cnc(Oc2ccc(Oc3ncc(Cl)cc3Cl)cc2)c(Cl)c1`, the outcome (Carcinogen: N-NITROSODIETHYLAMINE, 55-18-5, Doses [Carcinogen]: 75 MG/KG BW ONCE, Doses [Promoter]: 0, 100O PPM IN DIET FOR DURATION OF STUDY BEGINNING 2 WK POST CARCINOGEN DOSE (STUDY DURATION: 74 WK), Route [Carcinogen]: INTRAPERITONEAL, Route [Promoter]: ORAL, Species: RAT, Strain/Sex: F344/MALE) is “liver: adenoma; thyroid: follicular cell adenoma”; the outcome (Carcinogen: N-NITROSODIETHYLAMINE, 55-18-5, Doses [Carcinogen]: 75 MG/KG BW ONCE, Doses [Promoter]: 0, 330 PPM IN DIET FOR DURATION OF STUDY BEGINNING 2 WK POST CARCINOGEN DOSE (STUDY DURATION: 74 WK), Route [Carcinogen]: INTRAPERITONEAL, Route [Promoter]: ORAL, Species: RAT, Strain/Sex: F344/MALE) is “liver: adenoma”; the outcome (Carcinogen: N-NITROSODIETHYLAMINE, 55-18-5, Doses [Carcinogen]: 75 MG/KG BW ONCE, Doses [Promoter]: 30 MG/KG IN CORN OIL 1/2 WK BEGINNING 2 WK POST CARCINOGEN DOSE AND CONTINUING FOR 71 WK (STUDY DURATION: 73 WK), Route [Carcinogen]: INTRAPERITONEAL, Route [Promoter]: INTRAPERITONEAL, Species: RAT, Strain/Sex: F344/MALE) was “nasal cavity: carcinoma”; the outcome (Carcinogen: N-NITROSODIETHYLAMINE, 55-18-5, Doses [Carcinogen]: 90 MG/KG BW ONCE, Doses [Promoter]: 3 MG/KG BW IN CORN OIL 1/2 WK BEGINNING 2 WK POST CARCINOGEN DOSE AND CONTINUING FOR 24 WK (STUDY DURATION: 55 WK), Route [Carcinogen]: INTRAPERITONEAL, Route [Promoter]: INTRAGASTRIC, Species: MOUSE, Strain/Sex: C57BL/MALE) is “liver: hepatocellular adenoma or carcinoma”; the outcome (Carcinogen: N-NITROSODIETHYLAMINE, 55-18-5, Doses [Carcinogen]: 90 MG/KG BW ONCE, Doses [Promoter]: 3 MG/KG BW IN CORN OIL 1/2 WK BEGINNING 2 WK POST CARCINOGEN DOSE AND CONTINUING FOR 24 WK (STUDY DURATION: 55 WK), Route [Carcinogen]: INTRAPERITONEAL, Route [Promoter]: INTRAGASTRIC, Species: MOUSE, Strain/Sex: DBA/MALE) is “liver: hepatocellular adenoma or carcinoma”; the outcome (Carcinogen: N-NITROSODIETHYLAMINE, 55-18-5, Doses [Carcinogen]: 90 MG/KG BW ONCE, Doses [Promoter]: 3 MG/KG BW IN CORN OIL 1/2 WK BEGINNING 2 WK POST CARCINOGEN DOSE AND CONTINUING FOR 24 WK (STUDY DURATION: 55 WK), Route [Carcinogen]: INTRAPERITONEAL, Route [Promoter]: INTRAPERITONEAL, Species: MOUSE, Strain/Sex: C57BL/MALE) is recorded as “liver: hepatocellular adenoma or carcinoma”. Also, for the setting “Carcinogen: N-NITROSODIETHYLAMINE, 55-18-5, Doses [Carcinogen]: 90 MG/KG BW ONCE, Doses [Promoter]: 3 MG/KG BW IN CORN OIL 1/2 WK BEGINNING 2 WK POST CARCINOGEN DOSE AND CONTINUING FOR 24 WK (STUDY DURATION: 55 WK), Route [Carcinogen]: INTRAPERITONEAL, Route [Promoter]: INTRAPERITONEAL, Species: MOUSE, Strain/Sex: DBA/MALE”, the outcome is “liver: hepatocellular adenoma or carcinoma”.
Regarding `CC1(C)OC(=O)N(c2cc(Cl)cc(Cl)c2)C1=O`, the outcome (Carcinogen: 2-(ACETYLAMINO)FLUORINE, Doses [Carcinogen]: DIET, Doses [Promoter]: IN DIET, Route [Carcinogen]: ORAL, Route [Promoter]: ORAL, Species: RAT, Strain/Sex: MALE) is “liver”.
